Reference: ChEMBL document CHEMBL3774330, “Design, synthesis of phenstatin/isocombretastatin-oxindole conjugates as antimitotic agents” (Bioorg Med Chem, 2016)
pIC50: −log10 of the molar value.

How the values were obtained:
[1] = Cytotoxicity against human DU145 cells after 48 hrs by MTT assay; assay type: functional, cell-based; conditions: DU-145, 48 h
HT-29 [2] = assay: Cytotoxicity against human HT-29 cells after 48 hrs by MTT assay; assay type: functional, cell-based; conditions: HT-29, 48 h
A549 = assay: cells; conditions: Homo sapiens, A549, 48 h
Description: Cytotoxicity against human A549 cells after 48 hrs by MTT assay

MCF7 = assay: cells; conditions: Homo sapiens, MCF7, 48 h
Description: Cytotoxicity against human MCF7 cells after 48 hrs by MTT assay

HepG2 = assay: cells; conditions: Homo sapiens, HepG2, 48 h
Description: Cytotoxicity against human HepG2 cells after 48 hrs by MTT assay

HT-29 [3] = assay: Cell cycle arrest in human HT-29 cells assessed as accumulation at G0/G1 phase at 50 nM after 48 hrs by propidium iodide staining based flow cytometry (reference value: 83.01%); assay type: functional
HT-29 [4] = assay: Induction of apoptosis in human HT-29 cells assessed as late apoptotic cells at 50 nM after 48 hrs by Annexin V-FITC/PI staining based flow cytometry (Rvb=4.06%); assay type: functional
HT-29 [5] = assay: Cell cycle arrest in human HT-29 cells assessed as accumulation at G2/M phase at 10 nM after 48 hrs by propidium iodide staining based flow cytometry (reference value: 12.47%); assay type: functional
HT-29 [6] = assay: Induction of apoptosis in human HT-29 cells assessed as late apoptotic cells at 10 nM after 48 hrs by Annexin V-FITC/PI staining based flow cytometry (Rvb=4.06%); assay type: functional
HT-29 [7] = assay: Induction of apoptosis in human HT-29 cells assessed as reduction in mitochondrial membrane potential at 10 nM after 48 hrs by JC-1 staining based flow cytometry (reference value: 94.3%); assay type: functional; set-up: scale not given: the % may be the effect or the level left
HT-29 [8] = assay: Induction of apoptosis in human HT-29 cells assessed as reduction in mitochondrial membrane potential at 50 nM after 48 hrs by JC-1 staining based flow cytometry (reference value: 94.3%); assay type: functional; set-up: scale not given: the % may be the effect or the level left
Tubulin = Tubulin (Sus scrofa, UniProt P02554+P02550); assay: Inhibition of porcine brain tubulin polymerization after 1 hr by fluorescence assay
HT-29 [9] = assay: Cell cycle arrest in human HT-29 cells assessed as accumulation at S phase at 10 nM after 48 hrs by propidium iodide staining based flow cytometry (reference value: 3.02%); assay type: functional
HT-29 [10] = assay: Cell cycle arrest in human HT-29 cells assessed as accumulation at S phase at 50 nM after 48 hrs by propidium iodide staining based flow cytometry (reference value: 3.02%); assay type: functional
HT-29 [11] = assay: Cell cycle arrest in human HT-29 cells assessed as accumulation at G2/M phase at 50 nM after 48 hrs by propidium iodide staining based flow cytometry (reference value: 12.47%); assay type: functional
HT-29 [12] = assay: Induction of apoptosis in human HT-29 cells assessed as viable cells at 10 nM after 48 hrs by Annexin V-FITC/PI staining based flow cytometry (Rvb=93.82%); assay type: functional; conditions: HT-29, 48 h, read-out: Activity
HT-29 [13] = assay: Cell cycle arrest in human HT-29 cells assessed as accumulation at G0/G1 phase at 10 nM after 48 hrs by propidium iodide staining based flow cytometry (reference value: 83.01%); assay type: functional
HT-29 [14] = assay: Induction of apoptosis in human HT-29 cells assessed as necrotic cells at 50 nM after 48 hrs by Annexin V-FITC/PI staining based flow cytometry (Rvb=0.82%); assay type: functional
HT-29 [15] = assay: Induction of apoptosis in human HT-29 cells assessed as early apoptotic cells at 50 nM after 48 hrs by Annexin V-FITC/PI staining based flow cytometry (Rvb=1.30%); assay type: functional
HT-29 [16] = assay: Induction of apoptosis in human HT-29 cells assessed as early apoptotic cells at 10 nM after 48 hrs by Annexin V-FITC/PI staining based flow cytometry (Rvb=1.30%); assay type: functional
HT-29 [17] = assay: Cell cycle arrest in human HT-29 cells assessed as accumulation at sub G1 phase at 10 nM after 48 hrs by propidium iodide staining based flow cytometry (reference value: 1.00%); assay type: functional
HT-29 [18] = assay: Cell cycle arrest in human HT-29 cells assessed as accumulation at sub G1 phase at 50 nM after 48 hrs by propidium iodide staining based flow cytometry (reference value: 1.00%); assay type: functional
HT-29 [19] = assay: Induction of apoptosis in human HT-29 cells assessed as viable cells at 50 nM after 48 hrs by Annexin V-FITC/PI staining based flow cytometry (Rvb=93.82%); assay type: functional; conditions: HT-29, 48 h, read-out: Activity
HT-29 [20] = assay: Induction of apoptosis in human HT-29 cells assessed as necrotic cells at 10 nM after 48 hrs by Annexin V-FITC/PI staining based flow cytometry (Rvb=0.82%); assay type: functional

pIC50 (A549) | pIC50 (MCF7) | pIC50 (HepG2) | SMILES | pIC50 [1] | pIC50 (HT-29 [2]) | other results
4.90 | 4.68 | 4.98 | C=C(c1ccc(OC)c(/C=C2/C(=O)Nc3cc(Br)ccc32)c1)c1cc(OC)c(OC)c(OC)c1 | 4.68 | 5.08 | –
5.17 | 4.97 | 5.42 | COc1ccc(C(=O)c2cc(OC)c(OC)c(OC)c2)cc1/C=C1/C(=O)Nc2ccccc21 | 4.57 | 5.56 | –
5.02 | 4.85 | 5.60 | COc1ccc(C(=O)c2cc(OC)c(OC)c(OC)c2)cc1/C=C1/C(=O)Nc2ccc(Cl)cc21 | 4.53 | 5.49 | –
5.13 | 4.74 | 5.08 | C=C(c1ccc(OC)c(/C=C2/C(=O)Nc3ccc(Br)cc32)c1)c1cc(OC)c(OC)c(OC)c1 | 4.72 | 5.25 | –
5.83 | 5.50 | 6.05 | C=C(c1ccc(OC)c(/C=C2/C(=O)Nc3ccc(OC)cc32)c1)c1cc(OC)c(OC)c(OC)c1 | 5.30 | 6.97 | –
5.93 | 5.40 | 7.08 | C=C(c1ccc(OC)c(/C=C2/C(=O)Nc3ccc(F)cc32)c1)c1cc(OC)c(OC)c(OC)c1 | 5.50 | 7.09 | –
5.01 | 4.51 | 5.09 | COc1ccc(C(=O)c2cc(OC)c(OC)c(OC)c2)cc1/C=C1/C(=O)Nc2ccc(Br)cc21 | 4.72 | 5.07 | –
7.10 | 6.57 | 7.02 | COc1ccc2c(c1)/C(=C\c1cc(C(=O)c3cc(OC)c(OC)c(OC)c3)ccc1OC)C(=O)N2 | 5.10 | 7.35 | Activity (HT-29 [3]): 48.01%; Activity (HT-29 [4]): 18.7%; Activity (HT-29 [5]): 21.69%; Activity (HT-29 [6]): 8.34%; Activity (HT-29 [7]): 87.7%; Activity (HT-29 [8]): 83.1%; IC50 (Tubulin): 1.23 µM; Activity (HT-29 [9]): 4.87%; Activity (HT-29 [10]): 0.91%; Activity (HT-29 [11]): 49.8%; viability at 0.01 µM (HT-29 [12]): 88.7%; Activity (HT-29 [13]): 73.61%; Activity (HT-29 [14]): 3.52%; Activity (HT-29 [15]): 4.97%; Activity (HT-29 [16]): 2.16%; Activity (HT-29 [17]): 0.43%; Activity (HT-29 [18]): 0.62%; viability at 0.05 µM (HT-29 [19]): 72.8%; Activity (HT-29 [20]): 0.83%
7.03 | 6.41 | 6.73 | COc1ccc(C(=O)c2cc(OC)c(OC)c(OC)c2)cc1/C=C1/C(=O)Nc2ccc(F)cc21 | 5.01 | 7.31 | Activity (HT-29 [3]): 41.27%; Activity (HT-29 [4]): 24.46%; Activity (HT-29 [5]): 47.12%; Activity (HT-29 [6]): 9.67%; Activity (HT-29 [7]): 83.8%; Activity (HT-29 [8]): 81%; IC50 (Tubulin): 1.01 µM; Activity (HT-29 [9]): 2.47%; Activity (HT-29 [10]): 1.36%; Activity (HT-29 [11]): 56.82%; viability at 0.01 µM (HT-29 [12]): 86.5%; Activity (HT-29 [13]): 50.06%; Activity (HT-29 [14]): 2.92%; Activity (HT-29 [15]): 5.42%; Activity (HT-29 [16]): 2.88%; Activity (HT-29 [17]): 0.35%; Activity (HT-29 [18]): 0.18%; viability at 0.05 µM (HT-29 [19]): 67.2%; Activity (HT-29 [20]): 0.98%
5.13 | 4.93 | 5.49 | C=C(c1ccc(OC)c(/C=C2/C(=O)Nc3cc(Cl)ccc32)c1)c1cc(OC)c(OC)c(OC)c1 | 4.94 | 5.64 | –
5.34 | 4.83 | 5.40 | COc1ccc(C(=O)c2cc(OC)c(OC)c(OC)c2)cc1/C=C1/C(=O)Nc2cc(Br)ccc21 | 4.92 | 5.43 | –
4.94 | 4.69 | 5.12 | C=C(c1ccc(OC)c(/C=C2/C(=O)Nc3ccccc32)c1)c1cc(OC)c(OC)c(OC)c1 | 4.59 | 5.19 | –
4.96 | 4.82 | 5.25 | C=C(c1ccc(OC)c(/C=C2/C(=O)Nc3ccc(Cl)cc32)c1)c1cc(OC)c(OC)c(OC)c1 | 4.41 | 5.37 | –
4.92 | 4.80 | 4.80 | COc1ccc(C(=O)c2cc(OC)c(OC)c(OC)c2)cc1/C=C1/C(=O)Nc2cc(Cl)ccc21 | 4.49 | 4.87 | –
5.05 | 4.91 | 5.16 | COc1ccc(C(=O)c2cc(OC)c(OC)c(OC)c2)cc1/C=C1/C(=O)Nc2ccc([N+](=O)[O-])cc21 | 4.45 | 5.29 | –
5.24 | 4.88 | 5.43 | C=C(c1ccc(OC)c(/C=C2/C(=O)Nc3ccc([N+](=O)[O-])cc32)c1)c1cc(OC)c(OC)c(OC)c1 | 4.71 | 5.87 | –

SMILES | pIC50 (A549) | pIC50 (MCF7) | pIC50 (HepG2) | pIC50 [1] | pIC50 (HT-29 [2]) | other results
COc1ccc(/C=C\c2cc(OC)c(OC)c(OC)c2)cc1O [COMBRETASTATIN A4] | 7.29 | 7.34 | 7.64 | 8.15 | 7.31 | Activity (HT-29 [5]): 45.76%; Activity (HT-29 [6]): 20.21%; Activity (HT-29 [7]): 84.2%; Activity (HT-29 [9]): 2.62%; viability at 0.01 µM (HT-29 [12]): 73.4%; Activity (HT-29 [13]): 51.46%; Activity (HT-29 [16]): 3.46%; Activity (HT-29 [17]): 0.16%; Activity (HT-29 [20]): 2.93%
